Measurements reported in patent US11091428B2 (HAPLOGEN GMBH, priority 2016, dated 2021).
Like-named read-outs stand apart in the source and are kept apart here.

Columns and labels:
PLA2G16 = biological target: T1, PLA2G16 (Homo sapiens, UniProt P53816); test: Enzyme activity assay for PLA2G16 (Red/Green BODIPY PC-A2 fluorescence); type: biochemical; conditions: His-tagged PLA2G16, 4 min pre-incubation, 2 nM to 50 μM; read-out: IC50 values of the compounds determined in the enzyme activity assay for PLA2G16
T1 construct: Hexa-His (N); made in house; host or cells: E. coli BL21(DE3)
T1 sequence (P53816 1-162): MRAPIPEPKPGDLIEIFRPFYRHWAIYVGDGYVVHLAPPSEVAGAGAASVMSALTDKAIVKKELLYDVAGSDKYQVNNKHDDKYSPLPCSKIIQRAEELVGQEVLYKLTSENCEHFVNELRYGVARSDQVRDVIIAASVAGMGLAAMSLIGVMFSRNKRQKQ
In short: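 IC50 from non-linear fits of fluorescence rise (480/530 nm, 10 min) after adding Red/Green BODIPY PC-A2 mixed with DOPC/DOPG/cholesterol liposomes. Recombinant His-tagged human enzyme, bacterially expressed, was first exposed to inhibitor (2 nM–50 μM final) for 4 min in 50 mM Tris pH 8.5, 100 mM NaCl, 5 mM glutathione.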

[1] = system: picornaviruses (CVB1, HRV-A2, HRV-A23, EV-68); test: Anti-picornavirus cytopathic effect (CPE) reduction assay on HeLa H1 cells; type: cell-based; conditions: Enterovirus B, HeLa H1 cells, 48 h, category from averaging the EC50 values from four picornaviruses (CVB1, HRV-A2, HRV-A23, EV68), read-out: EC50 values of the compounds determined in the anti-picornavirus assay
Description: The antiviral activity of selected compounds was tested using a cytopathic effect (CPE) reduction assay on HeLa H1 cells (ATCC CRL-1958). Briefly, cells were seeded in 96-well dishes (2×10^4 cells/well) in DMEM medium (Life technologies) supplemented with 10% FBS and PenStrep solution (100 U/mL Penicillin and 100 μg/mL streptomycin) and incubated at 37° C., 5% CO2 ovemight. The next day, cells were pre-treated with serial dilutions of the compound in DMEM medium supplemented with 2% FBS and PenStrep for 2 h at 37° C., 5% CO2. Next, cells were infected with virus (CVB1, HRV-A2, HRV-A23, EV-68) at an multiplicity of infection (MOI) which results in a complete virus-induced CPE within 2 days in control wells (infected and vehicle-treated). After 48 h, supematants were aspirated and 50 μl/well of CellTiterBlue reagent (Promega) diluted 1:5 in DMEM+2% FBS, was added to the cells. Plates were returned to the incubator and allowed to develop for 1.5 h. After that, plates were equilibrated to RT and subsequently, fluorescence was recorded (Excitation wavelength: 560 nm; emission wavelength: 590 nm) using a SpectraMax M5 multimode plate reader. Viability of cells was calculated according to the formula: V=(RFUCpd−RFUVeh/(RFUM−RFUVeh), where RFUCpd refers to infected and compound-treated cells, RFUVeh to infected and vehicle-treated cells and RFUM to uninfected and vehicle treated cells. Half-maximal effective concentrations (EC50) were calculated by non-linear regression analysis using the drc package in R (R Development. Core Team, 2005). EC50 categories as presented in Table 2 were calculated by averaging the EC50 values from four picornaviruses (CVB1, HRV-A2, HRV-A23, EV68).

Compound	IC50 (PLA2G16)	EC50 ([1]; HeLa H1, 48 h)	EC50 ([1]; CVB1|EV68|HRVA2|HRVA23, HeLa H1, 48 h)
O=C(NCCCc1ccncc1)C(=O)C1CCC(=O)N1Cc1ccccc1 (stereo not drawn) [FP 228, 2-(1-Benzyl-5-oxopyrrolidin-2-yl)-2-oxo-N-[3-(pyridin-4-yl)propyl]acetamide]	< 1 µM	1 to 10 µM	
CC(OCC1CCOCC1)C(=O)C(=O)NCC1CCCC1 (stereo not drawn) [FP 132, N-(Cyclopentylmethyl)-3-[(oxan-4-yl)methoxy]-2-oxobutanamide]	< 1 µM	< 1 µM	
CCC(C(=O)C(=O)NCC1CCCCC1)N(C=O)CC1CCN(C(=O)OC(C)(C)C)CC1 (stereo not drawn) [FP 59, tert-Butyl 4-[(N-{1-[(cyclohexylmethyl)carbamoyl]-1-oxobutan-2-yl} formamido)methyl]-piperidine-1-carboxylate]	< 1 µM	1 to 10 µM	
O=C(NC1CC1)C(=O)[C@H]1CCC(=O)N1Cc1ccc(Cl)cc1 [FP 284, 2-[(2R)-1-[(4-Chlorophenyl)methyl]-5-oxopyrrolidin-2-yl]-N-cyclopropyl-2-oxoacetamide]	< 1 µM	< 1 µM	
CC(OC1CCCCC1)C(=O)C(=O)NCC1CCC1 (stereo not drawn) [FP 126, N-(Cyclobutylmethyl)-3-(cyclohexyloxy)-2-oxobutanamide]	< 1 µM	< 1 µM	
CCC(=O)N(C)C(C)C(=O)C(=O)NCC1CCCCC1 (stereo not drawn) [FP 145, N-(Cyclohexylmethyl)-3-(N-methylpropanamido)-2-oxobutanamide]	< 1 µM	1 to 10 µM	
CC(NC(=O)c1ccccc1Cl)C(=O)C(=O)NCC1CC1 (stereo not drawn) [FP 169, 3-[(2-Chlorophenyl)formamido]-(cyclopropylmethyl)-2-oxobutanamide]	< 1 µM	1 to 10 µM	
O=C(NC12CC(C1)C2)C(=O)[C@H]1CCC(=O)N1Cc1ccccc1 [FP 291, 2-[(2R)-1-Benzyl-5-oxopyrrolidin-2-yl]-N-{bicyclo[1.1.1]pentan-1-yl}-2-oxoacetamide]	< 1 µM	< 1 µM	
CC(OC1CCCCC1)C(=O)C(=O)NCC1CCCC1 (stereo not drawn) [FP 127, 3-(Cyclohexyloxy)-N-(cyclopentylmethyl)-2-oxobutanamide]	< 1 µM	< 1 µM	
CC(F)(F)CNC(=O)C(=O)[C@H]1CCC(=O)N1Cc1ccccc1 [FP 295, 2-[(2R)-1-Benzyl-5-oxopyrrolidin-2-yl]-N-(2,2-difluoropropyl)-2-oxoacetamide]	< 1 µM	< 1 µM	
CCC1CC(=O)N(Cc2ccccc2)C1C(=O)C(=O)NC1CCOCC1 (stereo not drawn) [FP 344, 2-(1-Benzyl-3-ethyl-5-oxopyrrolidin-2-yl)-N-(oxan-4-yl)-2-oxoacetamide]	< 1 µM	< 1 µM	
O=C(NC1CC1)C(=O)C1CCC(=O)N1Cc1ccccc1 (stereo not drawn)	< 1 µM		1 to 10 µM
CC(C)[C@H](C(=O)C(=O)NCC1CC1)N(C=O)CC(C)(C)C (single isomer, unassigned) [FP 32]	< 1 µM	> 10 µM	
COc1ccccc1N(C=O)C(C)C(=O)C(=O)N[C@@H](C)C(C)C (stereo partly drawn) [FP 108, 3-[N-(2-Methoxyphenyl)formamido]-N-[(2S)-3-methylbutan-2-yl]-2-oxobutanamide]	< 1 µM	< 1 µM	
CC(C(=O)C(=O)NCc1cccc(Cl)c1)N(C)C(=O)c1ccccc1 (stereo not drawn) [FP 160, N-[(3-Chlorophenyl)methyl]-3-(N-methyl-1-phenylformamido)-2-oxobutanamide]	< 1 µM	1 to 10 µM	
O=C(NC1CC1)C(=O)C1CCC(=O)N1Cc1ccc(F)cc1 (stereo not drawn) [FP 242, N-Cyclopropyl-2-{1-[(4-fluorophenyl)methyl]-5-oxopyrrolidin-2-yl}-2-oxoacetamide]	< 1 µM	1 to 10 µM	
CC(C(=O)C(=O)NCc1cccc(Cl)c1)N(C=O)CC1CCOCC1 (stereo not drawn) [FP 24, N-[(3-Chlorophenyl)methyl]-3-{N[(oxan-4-yl)methyl]formamido}-2-oxobutanamide]	< 1 µM	1 to 10 µM	

Compound	IC50 (PLA2G16)	EC50 ([1]; HeLa H1, 48 h)	EC50 ([1]; CVB1|EV68|HRVA2|HRVA23, HeLa H1, 48 h)
CC(C(=O)C(=O)NCC(F)(F)F)N(C=O)C1CCCCC1 (stereo not drawn) [FP 110, 3-(N-Cyclohexylformamido)-2-oxo-N-(2,2,2-trifluoroethyl)butanamide]	< 1 µM	1 to 10 µM	
N#CC1CC(NC(=O)C(=O)[C@H]2CCC(=O)N2Cc2ccccc2)C1 (stereo partly drawn) [FP 303, 2-[(2R)-1-Benzyl-5-oxopyrrolidin-2-yl]-N-(3-cyanocyclobutyl)-2-oxoacetamide]	< 1 µM	1 to 10 µM	
CCC(=O)N(c1ccccc1OC)C(C)C(=O)C(=O)NCc1cccc(Cl)c1 (stereo not drawn) [FP 141, N-[(3-Chlorophenyl)methyl]-3-[N-(2-methoxyphenyl)propanamido]-2-oxobutanamide]	< 1 µM	1 to 10 µM	
CC(C(=O)C(=O)NCC1CCCCC1)N(C)C(=O)C1CC1 (stereo not drawn) [FP 146, N-(Cyclohexylmethyl)-3-(1-cyclopropyl-N-methylformamido)-2-oxobutanamide]	< 1 µM	1 to 10 µM	
CCCC(NC(=O)c1ccccc1)C(=O)C(=O)NC1CC1 (stereo not drawn) [FP 184, N-Cyclopropyl-2-oxo-3-(phenylformamido)hexanamide]	< 1 µM	> 10 µM	
CC(C(=O)C(=O)NCC1CC1)N(C)C(=O)c1ccccc1 (stereo not drawn) [FP 149, N-(Cyclopropylmethyl)-3-(N-methyl-1-phenylformamido)-2-oxobutanamide]	< 1 µM	1 to 10 µM	
CCC(NC(=O)c1ccccc1)C(=O)C(=O)NCC1CC1 (stereo not drawn) [FP 155, N-(Cyclopropylmethyl)-2-oxo-3-(phenylformamido)pentanamide]	< 1 µM	1 to 10 µM	
CC(C(=O)C(=O)NCC1CCCC1)N(C=O)Cc1ccccc1 (stereo not drawn) [FP 200, 3-(N-Benzylformamido)-N-(cyclopentylmethyl)-2-oxobutanamide]	< 1 µM	< 1 µM	
COCCCN(C=O)C(CC(C)C)C(=O)C(=O)NCC1CC1 (stereo not drawn) [FP 72, N-(Cyclopropylmethyl)-3-[N-(3-methoxypropyl)formamido]-5-methyl-2-oxohexanamide]	< 1 µM	1 to 10 µM	
N#CC1(CNC(=O)C(=O)[C@H]2CCC(=O)N2Cc2ccccc2)CC1 [FP 290, 2-[(2R)-1-Benzyl-5-oxopyrrolidin-2-yl]-N-[(1-cyanocyclopropyl)methyl]-2-oxoacetamide]	< 1 µM	1 to 10 µM	
CC(C(=O)C(=O)NC1CC1)N(C=O)C1CCCCC1 (stereo not drawn) [FP 42, 3-(N-Cyclohexylformamido)-N-cyclopropyl-2-oxobutanamide]	< 1 µM	1 to 10 µM	
CCC(NC(=O)CN1CCCCC1)C(=O)C(=O)NCC1CCCCC1 (stereo not drawn) [FP 213, N-(Cyclohexylmethyl)-2-oxo-3-[2-(piperidin-1-yl)acetamido]pentanamide]	< 1 µM	1 to 10 µM	
COc1ccccc1N(C=O)CCC(=O)C(=O)NCc1cccc(Cl)c1 [FP 115, N-[(3-Chlorophenyl)methyl]-4-[N-(2-methoxyphenyl)formamido]-2-oxobutanamide]	< 1 µM	1 to 10 µM	
NC(=O)c1cccc(CN2C(=O)CCC2C(=O)C(=O)NCC2CC2)c1 (stereo not drawn) [FP 250, 3-[(2-{[(Cyclopropylmethyl)carbamoyl]carbonyl}-5-oxopyrrolidin-1-yl)methyl]benzamide]	< 1 µM	1 to 10 µM	
C[C@H](CO)NC(=O)C(=O)C1CCC(=O)N1Cc1ccc(Cl)cc1 (stereo partly drawn) [FP 258, 2-{1-[(4-Chlorophenyl)methyl]-5-oxopyrrolidin-2-yl}-N-[(2R)-1-hydroxypropan-2-yl]-2-oxoacetamide]	1 to 10 µM	1 to 10 µM	
COc1ccccc1N(C=O)C(C)C(=O)C(=O)NCc1ccc(F)c(Cl)c1 (stereo not drawn) [FP 93, N-[(3-Chloro-4-fluorophenyl)methyl]-3-[A (2-methoxyphenyl)formamido]-2-oxobutanamide]	< 1 µM	< 1 µM	
